Laboratory results: EP4796538A1, “NOVEL QUINOXALINE COMPOUNDS, MANUFACTURING METHOD THEREOF, AND USES THEREOF” (Gachon University of Industry-Academic Cooperation …, priority 2023, dated 2025)
pIC50: −log10 of the molar value. Read-outs that look alike come from different tables or passages of the source.

Columns and labels:
BaF3-RET(V804M) = experiment: Cell proliferation inhibition (GI50), Cell Counting Kit-8, Ba/F3 cell line; type: cell-based, rodent; conditions: Mus musculus, BaF3; 72 hours incubation; Cell Counting Kit-8; read-out: GI50 of BaF3-RET(V804M)
Experimental: To evaluate the inhibitory activity of the compounds represented by Formula I or Formula IV according to the present invention against RET mutation-driven cell growth in the Ba/F3 cell line and against cell growth in the non-small cell lung cancer cell line A-549, the following experiment was performed.
Each cell line was seeded in a 96-well plate at 1×10^4 cells/90 µL/well, and 10 µL/well of culture medium containing each example and intermediate compound or DMSO control at 9 concentrations (1 nM to 100 µM) prepared by 3-fold serial dilutions was added to achieve a final concentration of 0 to 100 µM, followed by incubation for 72 hours in a 37°C, 5% CO2 incubator. After 72 hours of incubation, the compound-treated plates were removed, and Cell Counting Kit-8 solution was added at 10 µL/well and mixed well. The plates were then incubated for 2 hours in a CO2 incubator at 37°C, and the absorbance was measured at 450 nm using a microplate reader.
In addition, the data were expressed as a percentage relative to vehicle-treated cells, and GI50 values were calculated using GraphPad Prism 8.0 (GraphPad Software Inc., San Diego), and the results are shown in Table 8 below. As a control compound, ponatinib, a known RET inhibitor, was treated to calculate the GI50 values.

RET(G810R) = molecular target: T1, RET(G810R) (Homo sapiens, UniProt P07949, G810R); experiment: Kinase panel inhibition, radiolabeled [γ-33P] ATP (Reaction Biology Corp); type: biochemical; conditions: for remaining activity at 1 µM: compound at 1 uM, ATP 10 µM, read-out: % Enzyme Activity (relative to DMSO controls) G810R; for IC50: read-out: Enzymatic inhibitory activity (IC50) nM G810R
T1 construct: purchased Reaction Biology Corp
Experimental: (§1) Using radiolabeled ATP ([γ-33P] ATP), the degree to which the substrate was replaced by a 33P-phosphorylated substrate was measured, and changes in kinase activity were determined from the measurement of the radiolabeled phosphorylated substrate.

RET-NCOA4 (PTC3) = molecular target: T2, RET-NCOA4 (PTC3) (Homo sapiens, UniProt P07949); experiment: as above; type: biochemical; conditions: compound at 1 uM; ATP 10 µM; read-out: % Enzyme Activity (relative to DMSO controls) RET-NCOA4 (PTC3)
T2 construct: purchased Reaction Biology Corp
Experimental: as §1

RET = molecular target: T3, RET (Homo sapiens, UniProt P07949); experiment: as above; type: biochemical; conditions: for remaining activity at 1 µM: compound at 1 uM, ATP 10 µM, read-out: % Enzyme Activity (relative to DMSO controls) RET; for IC50: read-out: Enzymatic inhibitory activity (IC50) nM RET
T3 construct: purchased Reaction Biology Corp
Experimental: as §1

RET(V804M)-KIF5B = molecular target: T4, RET(V804M)-KIF5B (Homo sapiens, UniProt P07949, V804M); experiment: as above; type: biochemical
T4 sequence (P07949 713-1114 V804M): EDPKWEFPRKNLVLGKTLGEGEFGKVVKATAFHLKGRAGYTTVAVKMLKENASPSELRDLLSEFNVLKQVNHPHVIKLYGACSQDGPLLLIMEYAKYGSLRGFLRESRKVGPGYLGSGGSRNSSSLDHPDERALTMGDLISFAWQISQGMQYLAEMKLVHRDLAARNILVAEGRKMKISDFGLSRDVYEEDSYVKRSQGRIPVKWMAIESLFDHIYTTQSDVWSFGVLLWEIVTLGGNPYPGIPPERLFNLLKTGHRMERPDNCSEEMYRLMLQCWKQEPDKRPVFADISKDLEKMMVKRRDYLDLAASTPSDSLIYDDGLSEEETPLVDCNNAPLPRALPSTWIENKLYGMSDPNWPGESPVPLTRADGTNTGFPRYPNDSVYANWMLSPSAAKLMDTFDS
T4 sequence (P33176 2-575 partner): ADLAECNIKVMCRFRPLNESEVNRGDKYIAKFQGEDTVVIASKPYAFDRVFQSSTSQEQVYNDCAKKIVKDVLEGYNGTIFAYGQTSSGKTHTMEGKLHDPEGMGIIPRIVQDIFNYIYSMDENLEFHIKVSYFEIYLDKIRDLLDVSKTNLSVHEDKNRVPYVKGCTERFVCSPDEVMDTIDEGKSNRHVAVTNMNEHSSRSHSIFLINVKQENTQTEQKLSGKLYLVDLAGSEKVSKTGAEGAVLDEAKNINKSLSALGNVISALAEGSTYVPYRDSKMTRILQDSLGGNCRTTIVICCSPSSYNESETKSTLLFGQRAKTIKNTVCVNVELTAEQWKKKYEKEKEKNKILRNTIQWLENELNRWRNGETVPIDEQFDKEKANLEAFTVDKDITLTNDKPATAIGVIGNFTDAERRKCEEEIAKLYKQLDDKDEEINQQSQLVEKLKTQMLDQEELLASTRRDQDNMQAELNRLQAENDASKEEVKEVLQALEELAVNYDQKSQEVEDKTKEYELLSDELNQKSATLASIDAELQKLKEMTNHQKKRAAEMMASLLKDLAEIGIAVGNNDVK
Experimental: as §1

BaF3 KIF5B-RET (G810R) = experiment: Cell proliferation inhibition, Cell Counting Kit-8, Ba/F3 cell line; type: cell-based, rodent; conditions: Mus musculus, 72 hours incubation, read-out: Cell Viability of BaF3 Cell lines (IC50 in uM) KIF5B-RET (G810R)
Experimental: As a control compound, selpercatinib, a known RET inhibitor, was treated to calculate the IC50 values.

RET (G810S/M918T) = molecular target: T5, RET (G810S/M918T) (Homo sapiens, UniProt P07949, G810S/M918T); experiment: Kinase panel inhibition, radiolabeled [γ-33P] ATP (Reaction Biology Corp); type: biochemical; conditions: compound at 10 uM, ATP 1 µM
T5 construct: purchased Reaction Biology Corp
Experimental: as §1

A-549 = experiment: Cell proliferation inhibition, Cell Counting Kit-8, non-small cell lung cancer cell line; type: cell-based; conditions: A-549 cell line; 72 hours incubation; test concentration not given
RET-CCDC6 (PTC1) = molecular target: T6, RET-CCDC6 (PTC1) (Homo sapiens, UniProt P07949); experiment: Kinase panel inhibition, radiolabeled [γ-33P] ATP (Reaction Biology Corp); type: biochemical; conditions: for remaining activity at 1 µM: compound at 1 uM, ATP 10 µM, read-out: % Enzyme Activity (relative to DMSO controls) RET-CCDC6 (PTC1); for remaining activity at 10 µM: compound at 10 uM, ATP 1 µM
T6 construct: purchased Reaction Biology Corp
Experimental: as §1

RET(V804M) = molecular target: T7, RET(V804M) (Homo sapiens, UniProt P07949, V804M); experiment: as above; type: biochemical; conditions: for remaining activity at 1 µM: compound at 1 uM, ATP 10 µM, read-out: % Enzyme Activity (relative to DMSO controls) V804M; for IC50: read-out: Enzymatic inhibitory activity (IC50) nM V804M
T7 construct: purchased Reaction Biology Corp
Experimental: as §1

[1] = Data 1, read-out: % Enzyme Activity (relative to DMSO controls) RET (G810S/M918T) Data 1
[2] = Data 2, read-out: % Enzyme Activity (relative to DMSO controls) RET (G810S/M918T) Data 2
[3] = Data 1, read-out: % Enzyme Activity (relative to DMSO controls) RET-CCDC6 (PTC1) Data 1
[4] = Data 2, read-out: % Enzyme Activity (relative to DMSO controls) RET-CCDC6 (PTC1) Data 2

T3 sequence (P07949 29-1114): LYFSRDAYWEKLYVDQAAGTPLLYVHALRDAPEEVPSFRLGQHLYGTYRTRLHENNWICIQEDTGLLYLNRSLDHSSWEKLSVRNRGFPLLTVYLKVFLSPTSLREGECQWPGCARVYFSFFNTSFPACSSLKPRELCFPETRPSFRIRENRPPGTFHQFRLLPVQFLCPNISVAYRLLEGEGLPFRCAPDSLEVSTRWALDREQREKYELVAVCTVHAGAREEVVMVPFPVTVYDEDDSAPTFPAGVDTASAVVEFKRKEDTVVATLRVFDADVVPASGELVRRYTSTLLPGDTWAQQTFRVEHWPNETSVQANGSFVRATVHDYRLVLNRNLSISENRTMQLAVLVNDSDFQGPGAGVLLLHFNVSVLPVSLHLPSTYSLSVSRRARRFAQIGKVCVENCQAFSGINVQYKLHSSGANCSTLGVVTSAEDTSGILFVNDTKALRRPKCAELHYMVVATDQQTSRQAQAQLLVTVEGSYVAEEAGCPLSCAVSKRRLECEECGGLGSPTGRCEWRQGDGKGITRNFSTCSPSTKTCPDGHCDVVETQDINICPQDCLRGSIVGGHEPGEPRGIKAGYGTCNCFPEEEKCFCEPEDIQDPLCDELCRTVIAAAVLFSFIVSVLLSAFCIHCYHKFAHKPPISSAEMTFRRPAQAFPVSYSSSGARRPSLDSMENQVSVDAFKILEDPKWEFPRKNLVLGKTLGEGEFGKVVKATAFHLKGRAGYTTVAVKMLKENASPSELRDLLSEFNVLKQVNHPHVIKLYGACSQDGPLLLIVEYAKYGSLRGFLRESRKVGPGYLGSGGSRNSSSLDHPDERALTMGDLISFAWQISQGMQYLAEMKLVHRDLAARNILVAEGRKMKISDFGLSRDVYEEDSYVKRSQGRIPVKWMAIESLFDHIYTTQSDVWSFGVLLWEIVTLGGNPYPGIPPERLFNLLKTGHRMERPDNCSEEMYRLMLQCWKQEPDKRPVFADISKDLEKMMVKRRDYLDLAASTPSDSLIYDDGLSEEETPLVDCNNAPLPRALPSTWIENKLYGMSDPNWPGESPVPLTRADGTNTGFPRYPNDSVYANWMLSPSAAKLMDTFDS
T6 sequence (P07949 whole entry, looked up): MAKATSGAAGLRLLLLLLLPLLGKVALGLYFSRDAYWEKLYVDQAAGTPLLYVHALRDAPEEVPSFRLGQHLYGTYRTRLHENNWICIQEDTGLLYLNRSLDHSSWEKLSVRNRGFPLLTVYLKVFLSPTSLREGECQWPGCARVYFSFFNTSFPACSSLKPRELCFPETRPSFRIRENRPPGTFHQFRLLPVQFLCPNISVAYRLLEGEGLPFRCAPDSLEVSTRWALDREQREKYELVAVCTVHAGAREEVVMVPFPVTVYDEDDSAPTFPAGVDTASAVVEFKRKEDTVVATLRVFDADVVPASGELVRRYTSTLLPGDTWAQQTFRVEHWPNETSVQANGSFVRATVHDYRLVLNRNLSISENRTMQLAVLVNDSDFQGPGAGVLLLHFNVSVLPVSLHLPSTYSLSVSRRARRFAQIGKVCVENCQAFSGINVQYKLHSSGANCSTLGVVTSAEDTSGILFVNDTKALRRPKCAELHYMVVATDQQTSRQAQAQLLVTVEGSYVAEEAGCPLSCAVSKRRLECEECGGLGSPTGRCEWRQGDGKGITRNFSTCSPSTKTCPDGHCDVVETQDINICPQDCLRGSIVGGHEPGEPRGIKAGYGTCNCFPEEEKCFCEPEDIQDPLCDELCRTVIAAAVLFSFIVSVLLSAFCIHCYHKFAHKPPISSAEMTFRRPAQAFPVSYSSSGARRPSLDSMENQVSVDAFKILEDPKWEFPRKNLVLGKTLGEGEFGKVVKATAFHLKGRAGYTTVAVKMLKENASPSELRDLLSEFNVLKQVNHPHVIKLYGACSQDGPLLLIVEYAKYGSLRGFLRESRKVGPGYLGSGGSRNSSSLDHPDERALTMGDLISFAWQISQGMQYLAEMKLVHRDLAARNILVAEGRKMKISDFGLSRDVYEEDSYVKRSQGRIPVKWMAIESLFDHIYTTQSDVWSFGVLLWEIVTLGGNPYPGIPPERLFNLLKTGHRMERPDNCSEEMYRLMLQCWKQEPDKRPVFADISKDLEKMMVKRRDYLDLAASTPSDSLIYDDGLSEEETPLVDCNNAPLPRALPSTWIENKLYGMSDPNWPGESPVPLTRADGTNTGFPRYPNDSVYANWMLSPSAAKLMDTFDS
T7 sequence (P07949 29-1114 V804M): as the sequence (P07949 29-1114) above, with V776M counted along it
T1 sequence (P07949 29-1114 G810R): as the sequence (P07949 29-1114) above, with G782R counted along it
T5 sequence (P07949 29-1114 G810S/M918T): as the sequence (P07949 29-1114) above, with G782S, M890T counted along it
T2 sequence (P07949 whole entry, looked up): as the sequence (P07949 whole entry, looked up) above

Row | Compound | GI50 (BaF3-RET(V804M)) [nM] | remaining activity at 1 µM (RET(G810R)) [%] | IC50 (RET(G810R)) [nM] | remaining activity at 1 µM (RET-NCOA4 (PTC3)) [%] | remaining activity at 1 µM (RET) [%] | IC50 (RET) [nM] | pIC50 (RET(V804M)-KIF5B) | IC50 (BaF3 KIF5B-RET (G810R)) [µM] | remaining activity at 10 µM (RET (G810S/M918T); [1]) [%] | remaining activity at 10 µM (RET (G810S/M918T); [2]) [%] | Cell Proliferation (% of control) (A-549) [%] | remaining activity at 1 µM (RET-CCDC6 (PTC1)) [%] | remaining activity at 10 µM (RET-CCDC6 (PTC1); [3]) [%] | remaining activity at 10 µM (RET-CCDC6 (PTC1); [4]) [%] | remaining activity at 1 µM (RET(V804M)) [%] | IC50 (RET(V804M)) [nM]
1 | Nc1cc(-c2ccc(N3CC(Oc4cccc(F)c4)C3)nc2)c2nccnc2c1 [Example 1, 8-(6-(3-(3-fluorophenoxy)azetidin-1-yl)pyridin-3-yl)quinoxalin-6-amine] | 1460 | 24.5 | 275 | 1.11 | 0.51 | 3.9 | 8.17 | 0.88 | 0.22 | -0.72 | 34.36 | 0.01 | 0.75 | 0.52 | 1.72 | 4.2
2 | CCNc1cc(-c2ccc(N3CC(Oc4cccc(F)c4)C3)nc2)c2nccnc2c1 [Example 3, N-ethyl-8-(6-(3-(3-fluorophenoxy)azetidin-1-yl)pyridin-3-yl)quinoxalin-6-amine] | 661 | 11.4 | 142 | 16.8 | 0.14 | 0.57 | 8.87 | 1.09 | -0.47 | -0.51 | 25.06 | 18.6 | 0.73 | 0.91 | 0.63 | 0.78
